{"source": "patent US20060127310A1", "about": "“Amplification of biotin-mediated targeting” (priority 2002, published 2006)", "key": {"O157": {"test_system": "O157", "experiment": "Uptake of Rhodamine-HPMA polymers into tumour cell lines", "type": "cell-based", "set-up": "key: −: Uptake was determined on a relative scale; +/−: Uptake was determined on a relative scale; +: Uptake was determined on a relative scale; ++: Uptake was determined on a relative scale; +++: Uptake was determined on a relative scale", "settings": "O157, Balb/C, Bcell Lymph; 5 hours at 37° C.", "protocol": "(§1) Cells from various tumour cell lines were allowed to grow for 2 days on glass slides incubated in appropriate media at 37° C. in 5% CO2. […] Cells were incubated for a further 5 hours at 37° C. in 5% CO2. At this time the media was removed and uptake into the cells was assessed by fluorescent microscopy of internalization of the rhodamine fluorophore. Uptake was determined on a relative scale."}, "4T1": {"test_system": "4T1", "experiment": "Uptake of Rhodamine-HPMA polymers into tumour cell lines", "type": "cell-based", "settings": "4T1, Balb/C, Breast; 5 hours at 37° C.", "protocol": "as §1"}, "B16": {"test_system": "B16", "experiment": "Uptake of Rhodamine-HPMA polymers into tumour cell lines", "type": "cell-based", "settings": "B16, C57/BI, Melanoma; 5 hours at 37° C.", "protocol": "as §1"}, "BW5147": {"test_system": "BW5147", "experiment": "Uptake of Rhodamine-HPMA polymers into tumour cell lines", "type": "cell-based", "settings": "BW5147, AKR/J, Lymphoma; 5 hours at 37° C.", "protocol": "as §1"}, "Colo-26": {"test_system": "Colo-26", "experiment": "Uptake of Rhodamine-HPMA polymers into tumour cell lines", "type": "cell-based", "settings": "Colo-26, Balb/C, Colon Carcin; 5 hours at 37° C.", "protocol": "as §1"}, "HCT-116": {"test_system": "HCT-116", "experiment": "Uptake of Rhodamine-HPMA polymers into tumour cell lines", "type": "cell-based", "settings": "HCT-116, Balb/C-Nu, Colon Carcin; 5 hours at 37° C.", "protocol": "as §1"}, "ID8": {"test_system": "ID8", "experiment": "Uptake of Rhodamine-HPMA polymers into tumour cell lines", "type": "cell-based", "settings": "ID8, C57/BI, Ovarian; 5 hours at 37° C.", "protocol": "as §1"}, "JC": {"test_system": "JC", "experiment": "Uptake of Rhodamine-HPMA polymers into tumour cell lines", "type": "cell-based", "settings": "Balb/C, Breast, 5 hours at 37° C.", "protocol": "as §1"}, "L1210FR": {"test_system": "L1210FR", "experiment": "Uptake of Rhodamine-HPMA polymers into tumour cell lines", "type": "cell-based", "settings": "DBA/2, Leukemia, 5 hours at 37° C.", "protocol": "as §1"}, "L1210": {"test_system": "L1210", "experiment": "Uptake of Rhodamine-HPMA polymers into tumour cell lines", "type": "cell-based", "settings": "L1210, DBA/2, Leukemia; 5 hours at 37° C.", "protocol": "as §1"}, "LL-2": {"test_system": "LL-2", "experiment": "Uptake of Rhodamine-HPMA polymers into tumour cell lines", "type": "cell-based", "settings": "LL-2, C57/BI, Lung; 5 hours at 37° C.", "protocol": "as §1"}, "M109": {"test_system": "M109", "experiment": "Uptake of Rhodamine-HPMA polymers into tumour cell lines", "type": "cell-based", "settings": "M109, Balb/C, Lung; 5 hours at 37° C.", "protocol": "as §1"}, "MMT060562": {"test_system": "MMT060562", "experiment": "Uptake of Rhodamine-HPMA polymers into tumour cell lines", "type": "cell-based", "settings": "MMT060562, Balb/C, Breast; 5 hours at 37° C.", "protocol": "as §1"}, "Ov 2008": {"test_system": "Ov 2008", "experiment": "Uptake of Rhodamine-HPMA polymers into tumour cell lines", "type": "cell-based", "settings": "Ov 2008, Balb/C-Nu, Ovarian; 5 hours at 37° C.", "protocol": "as §1"}, "Ovcar": {"test_system": "Ovcar", "experiment": "Uptake of Rhodamine-HPMA polymers into tumour cell lines", "type": "cell-based", "settings": "Ovarian, 5 hours at 37° C.", "protocol": "as §1"}, "P815": {"test_system": "P815", "experiment": "Uptake of Rhodamine-HPMA polymers into tumour cell lines", "type": "cell-based", "settings": "P815, DBA/2, Mastocytoma; 5 hours at 37° C.", "protocol": "as §1"}, "RENCA": {"test_system": "RENCA", "experiment": "Uptake of Rhodamine-HPMA polymers into tumour cell lines", "type": "cell-based", "settings": "Balb/C, Renal cell, 5 hours at 37° C.", "protocol": "as §1"}, "P815 tumour cells": {"test_system": "P815 tumour cells", "settings": "mice bearing P815 tumour; 5 mg/kg Rhodamine conjugated to HPMA intraperitoneally; six hours after injection; FIG. 1", "protocol": "For tumour accumulation studies, various strains of mice bearing a variety of tumours were injected intraperitoneally with 5 mg/kg Rhodamine conjugated to the HPMA polymers. Six hours after injection, the mice were sacrificed, their tumours removed and cryo-embedded before cryostatic sectioning. The level of accumulation of the Rhodamine-HPMA was determined by fluorescent microscopy using a Zeiss microscope equiped with Axioplan software. […] Blue staining is BisBenzamide staining of cell nuclei."}}, "data": [{"substance": "Rhodamine-HPMA polymer", "values": [{"measurement": "Uptake into the cells (internalization of the rhodamine fluorophore, fluorescent microscopy), relative scale", "setting": "O157", "value": "+/−"}, {"measurement": "Uptake into the cells (internalization of the rhodamine fluorophore, fluorescent microscopy), relative scale", "setting": "4T1", "value": "−"}, {"measurement": "Uptake into the cells (internalization of the rhodamine fluorophore, fluorescent microscopy), relative scale", "setting": "B16", "value": "−"}, {"measurement": "Uptake into the cells (internalization of the rhodamine fluorophore, fluorescent microscopy), relative scale", "setting": "BW5147", "value": "+/−"}, {"measurement": "Uptake into the cells (internalization of the rhodamine fluorophore, fluorescent microscopy), relative scale", "setting": "Colo-26", "value": "−"}, {"measurement": "Uptake into the cells (internalization of the rhodamine fluorophore, fluorescent microscopy), relative scale", "setting": "HCT-116", "value": "+"}, {"measurement": "Uptake into the cells (internalization of the rhodamine fluorophore, fluorescent microscopy), relative scale", "setting": "ID8", "value": "−"}, {"measurement": "Uptake into the cells (internalization of the rhodamine fluorophore, fluorescent microscopy), relative scale", "setting": "JC", "value": "−"}, {"measurement": "Uptake into the cells (internalization of the rhodamine fluorophore, fluorescent microscopy), relative scale", "setting": "L1210FR", "value": "−"}, {"measurement": "Uptake into the cells (internalization of the rhodamine fluorophore, fluorescent microscopy), relative scale", "setting": "L1210", "value": "−"}, {"measurement": "Uptake into the cells (internalization of the rhodamine fluorophore, fluorescent microscopy), relative scale", "setting": "LL-2", "value": "−"}, {"measurement": "Uptake into the cells (internalization of the rhodamine fluorophore, fluorescent microscopy), relative scale", "setting": "M109", "value": "−"}, {"measurement": "Uptake into the cells (internalization of the rhodamine fluorophore, fluorescent microscopy), relative scale", "setting": "MMT060562", "value": "−"}, {"measurement": "Uptake into the cells (internalization of the rhodamine fluorophore, fluorescent microscopy), relative scale", "setting": "Ov 2008", "value": "−"}, {"measurement": "Uptake into the cells (internalization of the rhodamine fluorophore, fluorescent microscopy), relative scale", "setting": "Ovcar", "value": "−"}, {"measurement": "Uptake into the cells (internalization of the rhodamine fluorophore, fluorescent microscopy), relative scale", "setting": "P815", "value": "−"}, {"measurement": "Uptake into the cells (internalization of the rhodamine fluorophore, fluorescent microscopy), relative scale", "setting": "RENCA", "value": "−"}, {"measurement": "Level of accumulation / polymer uptake by P815 tumour cells (fluorescent microscopy of cryostat sections)", "setting": "P815 tumour cells", "value": "accumulation"}]}]}
